Assays:
[1] = Force degradation of 2% CBD cream (CBD assay by HPLC); format: physicochemical; details: vs untreated reference
Protocol: Samples were prepared by the following method: • 1. 200 mg 2% CBD cream vs. Blank (7 mL vials), • 2. Subjected to Oxidation/Base/Acid/Heat/UV conditions (see below), • 3. Mixing with 4 mL DMSO, • 4. Sonication, 30 min, • 5. Shaking, 1 h, • 6. Centrifugation at 4000 rpm, 5 min, • 7. Filtration by 0.22 μm PTFE, • 8. HPLC sample preparation and HPLC protocol as above.
Samples were subjected to the following force degradation conditions and tested for CBD content: • Heat: 200 mg cream was heated at 100° C. (oil bath) for 6 h; • UV: 200 mg cream was exposed to the sun for 3 h; • Acidic conditions: 200 mg cream was treated with 150 μl 9M HCl (aq.) for 1 h and neutralized with 150 μl 9M NaOH; • Basic conditions: […] μl 1M HCl; • Oxidation: 200 mg of cream was treated with 1 ml 30% H2O2 for 2 h; CBD assay % was calculated according to the untreated reference.

[2] = Dissolution of CBD in oil solvents of the creams; format: physicochemical; details: CBD 2%; medium-chain triglycerides (MCT) and sesame oil
Protocol: The main tested parameters included the following: • 1. Reduction of ethanol: Ethanol is generally considered a co-solvent of CBD. The concentration of ethanol was reduced from initial to final preparations, starting from 3.6% and 0.9% to no ethanol in the final preparations, where CBD was dissolved directly in sesame oil (see for example CBD #34 in Table 13 below). • 2. Selection of an antioxidant: The selected antioxidants were BHT and propyl gallate, in various combinations and proportions. […] Due to this property, the final preparations contained 0.05% BHT (see Table 13, CBD #34). • 3. Selection of an oil: Oil is a known solvent for CBD. Various oils were tested as optional solvents in the cosmetic creams of the invention. […] Both MCT and sesame oil have antioxidants properties (see Table 13, CBD #34).

**Q.** For `C=C(C)[C@@H]1CCC(C)=C[C@H]1c1c(O)cc(CCCCC)cc1O` [CBD, cannabidiol], which CBD assay ([1]; Acid: 200 mg 2% CBD cream, 150 μl 9M HCl, 1 h) is on record?
**A.** 67.7%

**Q.** What about the CBD assay ([1]; Base: 200 mg 2% CBD cream, 200 μl 1M NaOH, time point 1 h) of the same compound?
**A.** 81.9%

**Q.** What about the CBD assay ([1]; Heat: 200 mg 2% CBD cream at 100° C. (oil bath), 6 h) of the same compound?
**A.** 87.8%

**Q.** And the CBD assay ([1]; Oxidation: 200 mg 2% CBD cream, 1 ml 30% H2O2, 2 h)?
**A.** 63.5%

**Q.** What about the CBD assay ([1]; UV: 200 mg 2% CBD cream exposed to the sun, 3 h) of the same compound?
**A.** 98.4%

**Q.** What about the “dissolution of CBD in oil solvent” value [2] of the same compound?
**A.** complete dissolution

From patent US20240315937A1, “STABLE EFFICIENT COSMETIC PREPARATIONS” (YISSUM RESEARCH DEVELOPMENT COMPANY OF THE HEBREW …, priority 2021, published 2024)
